In patent US11278526B2, “Compounds and methods for treating lupus” (RECEPTOS LLC, priority 2016, dated 2022):

Columns and labels:
S1P1R = target: T1, S1P1R (Mus musculus, UniProt O08530); experiment: S1P1R cell surface expression on splenic CD4+ T cells by flow cytometry; assay type: in vivo; conditions: NZBWF1 mice, splenocytes at termination; 0.3, 1.0, 3.0 mg/kg PO QD
T1 construct: from tissue; host or cells: spleen
From the text: S1P1R is expressed on T and B lymphocytes and is the target for modulation by compound 5. Following agonism of the receptor by compound 5, the receptor is internalized and degraded. To determine whether internalization is occurring in T cells following compound dosing in vivo, both naïve and activated CD4+ T cells were examined for cell surface expression of S1P1R. At termination, spleens were harvested and splenocytes isolated and analyzed for immune cell populations by antibody staining and flow cytometry. S1P1R expression was measured on both activated CD4+ T cells (CD3+CD4+CD44+CD62L−) and naïve T cells (CD3+CD4+CD44−CD62L+).

splenocytes = experiment: Splenocyte counts and immunophenotyping of spleen cell subtypes; assay type: in vivo, mice; conditions: NZBWF1 mice; for Total splenocyte counts relative to vehicle: 42 weeks; for Percent Reduction vs Vehicle: Activated CD4 + T cells / Percent Reduction vs Vehicle: CD4 + T cells / Percent Reduction vs Vehicle: CD8 + T cells / Percent Reduction vs Vehicle: CD11b + Ly6C^hi monocytes / Percent Reduction vs Vehicle: CD19 + B cells / Percent Reduction vs Vehicle: Follicular B cells / Percent Reduction vs Vehicle: Germinal Center B cells / Percent Reduction vs Vehicle: Marginal Zone B cells / Percent Reduction vs Vehicle: Marginal Zone Progenitor B cells / Percent Reduction vs Vehicle: Naive CD4 + T cells / Percent Reduction vs Vehicle: Plasma cells / Percent Reduction vs Vehicle: Tfh cells / Percent Reduction vs Vehicle: Total splenocytes / Percent Reduction vs Vehicle: Treg cells / Percent Reduction vs Vehicle: pDC: spleen
Description: To determine the effects of compound 148 on inflammatory infiltrate in the spleen, spleens were weighed at 42 weeks. […] Splenocyte suspensions were then prepared. RBCs were lysed and splenocytes were counted.
Plasmacytoid dendritic cells (pDC) express IFNAR1 (Interferon alpha receptor 1), which amplifies the proinflammatory response to type 1 interferons (e.g., IFNα) that are associated with lupus. IFNAR activity is considered to be an important modulator of signal strength and duration in pDC and subsequent activation of T and B cells in the inflammatory response. pDC counts were measured at termination.
To determine the effects of compound 5 on inflammatory infiltrate in the spleen, spleens were weighed at 42 weeks. […] Splenocyte suspensions were prepared for all three doses. RBCs were lysed and splenocytes were counted.

profibrotic genes = experiment: Kidney mRNA levels of profibrotic genes; assay type: in vivo; conditions: NZBWF1 mice
Description: (§1) As explained above, SLE is characterized by aberrant recognition of healthy “self” tissue as antigenic. The resulting immune response is characterized by inflammation. To measure SLE status, mRNA levels were measured for an array of inflammatory and immune response genes from kidneys collected at termination or week 23 (naïve) and stored in RNAlater (n=5). mRNA was quantified using QuantiGene Multiplex Assay.
SLE-related inflammation can lead to fibrotic scarring. mRNA levels were measured for an array of profibrotic genes. […] Expression signals of MMP10, IL-2, IL-6, and TNF were also measured, but were below LLOQ (data not shown).

IFNα = experiment: Serum IFNα by ELISA; assay type: in vivo; conditions: NZBWF1 mice; all treatment groups 0.3, 1.0, 3.0 mg/kg PO QD; weeks 23, 29, 36, 42; assay sensitivity 7.48 pg/ml
Description: (§2) As discussed above, IFNAR1 (Interferon alpha receptor 1) and its ligand IFNα are important modulators of lupus-associated autoimmune response in humans. Serum IFNα was measured by ELISA (eBioscience kit) at 23, 29, 36, and 42 weeks (FIG. 17). Assay sensitivity was 7.48 pg/ml (dotted line). […] However, several samples at multiple time points were below the sensitivity of the assay (data not shown), consistent with reports that the NZBWF1 model has a weak IFNα signature. To determine whether compound 148 affected IFNAR1 expression, percent surface expression and MFI expression were measured in pDC cells at termination (FIGS. 18A and 18B, respectively).

IFNAR1 = IFNAR1 expression in splenic pDC cells; assay type: in vivo; conditions: NZBWF1 mice, at termination, after five months of treatment
Description: as §2

[1] = tested on: inflammatory and immune response genes; experiment: Kidney mRNA levels of inflammatory and immune response genes (QuantiGene Multiplex Assay); assay type: in vivo; conditions: NZBWF1 mice; 3 mpk PO; n=5
Description: as §1

[2] = tested on: CD4+ T cells, CD8+ T cells, and CD19+ B cells; experiment: Peripheral lymphocyte counts from whole blood by flow cytometry; assay type: in vivo; conditions: NZBWF1 mice
Description: Lymphocyte counts were measured from whole blood taken at 23, 31, and 36.5 weeks using flow cytometry. Cells were gated for CD4+ T cells, CD8+ T cells, and CD19+ B cells. […] Serum blood urea nitrogen (BUN) was also measured at termination to assess kidney function.

IFN-inducible genes = experiment: mRNA expression of genes responsive to type-1 interferon signaling; assay type: in vivo; conditions: NZBWF1 mice; 3 mpk PO
[3] = 3.0 mg/kg PO QD (compound 148 study)

T1 sequence (O08530 whole entry): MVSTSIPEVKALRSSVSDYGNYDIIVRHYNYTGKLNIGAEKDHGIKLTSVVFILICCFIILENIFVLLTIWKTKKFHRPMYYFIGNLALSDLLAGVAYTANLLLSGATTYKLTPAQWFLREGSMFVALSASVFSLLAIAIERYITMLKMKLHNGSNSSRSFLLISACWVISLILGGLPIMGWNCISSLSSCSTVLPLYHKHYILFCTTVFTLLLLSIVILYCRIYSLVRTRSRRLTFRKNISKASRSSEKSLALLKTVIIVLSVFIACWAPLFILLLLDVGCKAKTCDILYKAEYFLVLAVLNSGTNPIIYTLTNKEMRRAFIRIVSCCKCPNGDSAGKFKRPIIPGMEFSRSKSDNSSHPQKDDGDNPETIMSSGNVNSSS

CC(C)Oc1ccc(-c2nc(-c3cccc4c3CC[C@@H]4NCCO)no2)cc1C#N [compound 5, (S)-5-(3-(1-(2-hydroxyethylamino)-2,3-dihydro-1H-inden-4-yl)-1,2,4-oxadiazol-5-yl)-2-isopropoxy benzonitrile]
S1P1R expression on activated CD4+ T cells (CD3+CD4+CD44+CD62L−) (S1P1R): reduced in a dose-dependent manner | S1P1R expression on naïve CD4+ T cells (CD3+CD4+CD44−CD62L+) (S1P1R): reduced in a dose-dependent manner | Total splenocyte counts relative to vehicle (splenocytes; all groups 0.3, 1.0, 3.0 mg/kg PO QD (compound 5 study)): reduced | Percent Reduction vs Vehicle: Activated CD4 + T cells (splenocytes; 0.3 mg/kg PO QD): 46% | Percent Reduction vs Vehicle: CD4 + T cells (splenocytes; 0.3 mg/kg PO QD): 51% | Percent Reduction vs Vehicle: CD8 + T cells (splenocytes; 0.3 mg/kg PO QD): 46% | Percent Reduction vs Vehicle: CD11b + Ly6C^hi monocytes (splenocytes; 0.3 mg/kg PO QD): −17% | Percent Reduction vs Vehicle: CD19 + B cells (splenocytes; 0.3 mg/kg PO QD): 43% | Percent Reduction vs Vehicle: Follicular B cells (splenocytes; 0.3 mg/kg PO QD): 43% | Percent Reduction vs Vehicle: Germinal Center B cells (splenocytes; 0.3 mg/kg PO QD): 46% | Percent Reduction vs Vehicle: Marginal Zone B cells (splenocytes; 0.3 mg/kg PO QD): 20% | Percent Reduction vs Vehicle: Marginal Zone Progenitor B cells (splenocytes; 0.3 mg/kg PO QD): 75% | Percent Reduction vs Vehicle: Naive CD4 + T cells (splenocytes; 0.3 mg/kg PO QD): 73% | Percent Reduction vs Vehicle: Plasma cells (splenocytes; 0.3 mg/kg PO QD): 50% | Percent Reduction vs Vehicle: Tfh cells (splenocytes; 0.3 mg/kg PO QD): 35% | Percent Reduction vs Vehicle: Total splenocytes (splenocytes; 0.3 mg/kg PO QD): 35% | Percent Reduction vs Vehicle: Treg cells (splenocytes; 0.3 mg/kg PO QD): 37% | Percent Reduction vs Vehicle: pDC (splenocytes; 0.3 mg/kg PO QD): 49% | Percent Reduction vs Vehicle: Activated CD4 + T cells (splenocytes; 1.0 mg/kg PO QD): 72% | Percent Reduction vs Vehicle: CD4 + T cells (splenocytes; 1.0 mg/kg PO QD): 75% | Percent Reduction vs Vehicle: CD8 + T cells (splenocytes; 1.0 mg/kg PO QD): 77% | Percent Reduction vs Vehicle: CD11b + Ly6C^hi monocytes (splenocytes; 1.0 mg/kg PO QD): 34% | Percent Reduction vs Vehicle: CD19 + B cells (splenocytes; 1.0 mg/kg PO QD): 69% | Percent Reduction vs Vehicle: Follicular B cells (splenocytes; 1.0 mg/kg PO QD): 66% | Percent Reduction vs Vehicle: Germinal Center B cells (splenocytes; 1.0 mg/kg PO QD): 57% | Percent Reduction vs Vehicle: Marginal Zone B cells (splenocytes; 1.0 mg/kg PO QD): 63% | Percent Reduction vs Vehicle: Marginal Zone Progenitor B cells (splenocytes; 1.0 mg/kg PO QD): 88% | Percent Reduction vs Vehicle: Naive CD4 + T cells (splenocytes; 1.0 mg/kg PO QD): 91% | Percent Reduction vs Vehicle: Plasma cells (splenocytes; 1.0 mg/kg PO QD): 66% | Percent Reduction vs Vehicle: Tfh cells (splenocytes; 1.0 mg/kg PO QD): 51% | Percent Reduction vs Vehicle: Total splenocytes (splenocytes; 1.0 mg/kg PO QD): 50% | Percent Reduction vs Vehicle: Treg cells (splenocytes; 1.0 mg/kg PO QD): 58% | Percent Reduction vs Vehicle: pDC (splenocytes; 1.0 mg/kg PO QD): 72% | Percent Reduction vs Vehicle: Activated CD4 + T cells (splenocytes; 3.0 mg/kg PO QD): 80% | Percent Reduction vs Vehicle: CD4 + T cells (splenocytes; 3.0 mg/kg PO QD): 81% | Percent Reduction vs Vehicle: CD8 + T cells (splenocytes; 3.0 mg/kg PO QD): 75% | Percent Reduction vs Vehicle: CD11b + Ly6C^hi monocytes (splenocytes; 3.0 mg/kg PO QD): 28% | Percent Reduction vs Vehicle: CD19 + B cells (splenocytes; 3.0 mg/kg PO QD): 74% | Percent Reduction vs Vehicle: Follicular B cells (splenocytes; 3.0 mg/kg PO QD): 72% | Percent Reduction vs Vehicle: Germinal Center B cells (splenocytes; 3.0 mg/kg PO QD): 64% | Percent Reduction vs Vehicle: Marginal Zone B cells (splenocytes; 3.0 mg/kg PO QD): 54% | Percent Reduction vs Vehicle: Marginal Zone Progenitor B cells (splenocytes; 3.0 mg/kg PO QD): 85% | Percent Reduction vs Vehicle: Naive CD4 + T cells (splenocytes; 3.0 mg/kg PO QD): 88% | Percent Reduction vs Vehicle: Plasma cells (splenocytes; 3.0 mg/kg PO QD): 70% | Percent Reduction vs Vehicle: Tfh cells (splenocytes; 3.0 mg/kg PO QD): 68% | Percent Reduction vs Vehicle: Total splenocytes (splenocytes; 3.0 mg/kg PO QD): 60% | Percent Reduction vs Vehicle: Treg cells (splenocytes; 3.0 mg/kg PO QD): 81% | Percent Reduction vs Vehicle: pDC (splenocytes; 3.0 mg/kg PO QD): 68%

CC(C)Oc1ccc(-c2nc(-c3cccc4c3CC[C@@H]4N)no2)cc1C#N [compound 148, (S)-5-(3-(1-amino-2,3-dihydro-1H-inden-4-yl)-1,2,4-oxadiazol-5-yl)-2-isopropoxy-benzonitrile]
mRNA level of Cdcd88a/Girdin relative to control (profibrotic genes; 3 mpk PO): decreased levels | mRNA level of LOXL1 relative to control (profibrotic genes; 3 mpk PO): decreased levels | mRNA level of Lipocalin 2 relative to control (profibrotic genes; 3 mpk PO): decreased levels | mRNA level of TGFβ2 relative to control (profibrotic genes; 3 mpk PO): decreased levels | mRNA level of TIMP1 relative to control (profibrotic genes; 3 mpk PO): decreased levels | mRNA level of Transgelin relative to control (profibrotic genes; 3 mpk PO): decreased levels | IFGBP2 mRNA levels (profibrotic genes; following administration of compound 148): appeared to increase somewhat | Total splenocyte counts relative to vehicle (splenocytes; all groups 0.3, 1.0, 3.0 mg/kg PO QD (compound 148 study)): reduced | Decrease of splenic pDC counts relative to vehicle (splenocytes; at termination, 3.0 mg/kg PO QD (compound 148 study)): 62% | Decrease in splenic CD4+ T cell population (splenocytes; [3]): 75% | Decrease in splenic Follicular (FO) B cells (splenocytes; [3]): 79% | Reduction in splenic CD8+ T cell population (splenocytes; [3]): 62% | Reduction in splenic CD19+ B cell population (splenocytes; [3]): 67% | Reduction in splenic Germinal Center (GC) B cell population (splenocytes; [3]): 51% | Reduction in splenic Marginal Zone (MZ) B cell population (splenocytes; [3]): 61% | Reduction in splenic activated CD4+ T cell population (splenocytes; [3]): 75% | Reduction in splenic naïve CD4+ T cells (splenocytes; [3]): 81% | Reduction in splenic plasma cell population (splenocytes; [3]): 30% | Serum IFNα levels compared to vehicle (IFNα): lower serum IFNα levels compared to vehicle | MFI of IFNAR1 expression in pDC cells (IFNAR1): very little difference between the groups | Percent surface expression of IFNAR1 in pDC cells (IFNAR1): very little difference between the groups | Kidney mRNA level of CCL5 relative to control [1]: decreased levels | Kidney mRNA level of CXCL9 relative to control [1]: decreased levels | Kidney mRNA level of CXCL10 relative to control [1]: decreased levels | Kidney mRNA level of IL-1β relative to control [1]: decreased levels | Kidney mRNA level of IL-10 relative to control [1]: decreased levels | Kidney mRNA level of TNFSF13b/BAFF relative to control [1]: decreased levels | Reduction of overall lymphocyte counts relative to vehicle ([2]; whole blood at 23, 31 and 36.5 weeks, all three doses (0.3, 1.0, 3.0 mg/kg PO QD), p<0.05): > 90% | CD4+ T cell and CD8+ T cell counts relative to cyclophosphamide ([2]; whole blood, flow cytometry): Significant reductions | Expression levels of IFN-inducible genes (mRNA) (IFN-inducible genes): no significant effect
